Measured values published in ChEMBL document CHEMBL1158187, “Five novel mono-tetrahydrofuran ring acetogenins from the seeds of Annona muricata” (J Nat Prod, 1996).
≈ marks a conversion by molar mass, not a printed value.

Legend:
MCF7 = assay: Cytotoxicity against human MCF7 cells; assay type: functional, cell-based
[1] = Toxicity in Artemia salina; assay type: organism-based; conditions: in vivo
A549 = assay: Cytotoxicity against human A549 cells; assay type: functional, cell-based
HT-29 = assay: Cytotoxicity against human HT29 cells; assay type: functional, cell-based
[2] = test system: Agrobacterium tumefaciens; assay: Inhibition of growth of crown gall tumors in Agrobacterium tumefaciens with tumor-inducing plasmid on potato disk; assay type: functional

| SMILES | IC50 (MCF7) | LC50 [1] | IC50 (A549) | IC50 (HT-29) | inhibition (INH) [2] |
| --- | --- | --- | --- | --- | --- |
| CCCCCCCCCCCCCC[C@H](O)[C@@H]1CC[C@H]([C@H](O)CC[C@H](O)CCCCC[C@@H](O)CC2=C[C@H](C)OC2=O)O1 | 1.05 mg/L (≈ 1.76 µM) | 5.2 mg/L (≈ 8.71 µM) | 0.13 mg/L (≈ 0.218 µM) | 0.0053 mg/L (≈ 0.00888 µM) | 47% |
| CCCCCCCCCCCC[C@@H]1OCO[C@H](CCC[C@H](O)CCCCC[C@@H](O)CC2=C[C@H](C)OC2=O)[C@@H]2CC[C@@H]1O2 | 2.6 mg/L (≈ 4.37 µM) |  | 0.079 mg/L (≈ 0.133 µM) | 2.1 mg/L (≈ 3.53 µM) | 22% |
| CCCCCCCCCCCC[C@H](O)[C@@H]1CC[C@H]([C@H](O)CCCCC(=O)CCCCC[C@@H](O)CC2=C[C@H](C)OC2=O)O1 | 0.29 mg/L (≈ 0.487 µM) | 1.8 mg/L (≈ 3.03 µM) | 0.35 mg/L (≈ 0.588 µM) | 0.0009 mg/L (≈ 0.00151 µM) | 32% |
| CCCCCCCCCCCC[C@H](O)[C@@H]1CC[C@H]([C@H](O)CCCC[C@H](O)CCCCC[C@@H](O)CC2=C[C@H](C)OC2=O)O1 | 1.18 mg/L (≈ 1.98 µM) | 2.3 mg/L (≈ 3.85 µM) | 0.23 mg/L (≈ 0.385 µM) |  | 28% |
| CCCCCCCCCCCCCC[C@H](O)[C@@H]1CC[C@H]([C@H]2CC[C@@H](CCCCC[C@@H](O)CC3=C[C@H](C)OC3=O)OCO2)O1 | 0.52 mg/L (≈ 0.854 µM) |  | 0.53 mg/L (≈ 0.87 µM) | 2.6 mg/L (≈ 4.27 µM) | 21% |
| CCCCCCCCCCCC[C@@H](O)[C@H]1CC[C@H]([C@H]2CC[C@H](CCCCCCC[C@@H](O)CC3=C[C@H](C)OC3=O)OCO2)O1 [ARIANACIN FORMAL] | 8.5 mg/L (≈ 14 µM) |  | 0.02 mg/L (≈ 0.0328 µM) | 1 mg/L (≈ 1.64 µM) | 28% |
| CCCCCCCCCCCC[C@@H](O)[C@H]1CC[C@H]([C@H](O)CC[C@@H](O)CCCCCCC[C@@H](O)CC2=C[C@H](C)OC2=O)O1 [ARIANACIN] | 0.4 mg/L (≈ 0.67 µM) | 7.1 mg/L (≈ 11.9 µM) | 0.0047 mg/L (≈ 0.00787 µM) | 4.4 mg/L (≈ 7.37 µM) | 26% |
| COc1cccc2c1C(=O)c1c(O)c3c(c(O)c1C2=O)C[C@@](O)(C(=O)CO)C[C@@H]3O[C@H]1C[C@H](N)[C@H](O)[C@H](C)O1 [DOXORUBICIN] |  |  | 0.0004 mg/L (≈ 0.000736 µM) | 0.00051 mg/L (≈ 0.000938 µM) |  |
| CCCCCCCCCCCCCC[C@@H](O)[C@H]1CC[C@H]([C@H]2CC[C@@H](CCCCC[C@@H](O)CC3=C[C@H](C)OC3=O)OCO2)O1 [GONIOTHALAMICIN FORMAL] | 1.03 mg/L (≈ 1.69 µM) |  | 0.025 mg/L (≈ 0.0411 µM) | 1.13 mg/L (≈ 1.86 µM) |  |
| CCCCCCCCCCCCCC[C@@H](O)[C@H]1CC[C@H]([C@H](O)CC[C@H](O)CCCCC[C@@H](O)CC2=C[C@H](C)OC2=O)O1 [GONIOTHALAMICIN] | 0.057 mg/L (≈ 0.0955 µM) | 0.6 mg/L (≈ 1.01 µM) | 0.008 mg/L (≈ 0.0134 µM) | 0.0011 mg/L (≈ 0.00184 µM) |  |
| CCCCCCCCCCCC[C@@H](O)[C@H]1CC[C@H]([C@H]2CC[C@@H](CCCCCCC[C@@H](O)CC3=C[C@H](C)OC3=O)OCO2)O1 [JAVORICIN FORMAL] | 2.9 mg/L (≈ 4.76 µM) |  | 0.02 mg/L (≈ 0.0328 µM) | 5.6 mg/L (≈ 9.2 µM) | 31% |
| CCCCCCCCCCCC[C@@H](O)[C@H]1CC[C@H]([C@H](O)CC[C@H](O)CCCCCCC[C@@H](O)CC2=C[C@H](C)OC2=O)O1 [JAVORICIN] | 0.23 mg/L (≈ 0.385 µM) | 4.9 mg/L (≈ 8.21 µM) | 0.017 mg/L (≈ 0.0285 µM) | 1.8 mg/L (≈ 3.02 µM) | 47% |
